This passage reports T/C results from PubChem BioAssay AID256 (DTP/NCI, 2004).

Where “and” joins values, the source holds several entries; their conditions need not be identical. Equal entries are not always repeated. Inconclusive results and toxic doses are left out.

The experiment has as its system CD2F1 mice, L1210 leukemia ip, survival T/C. The experiment can be described thus: NCI In Vivo Anticancer Drug Screen. Data for tumor model L1210 Leukemia (intraperitoneal) in CD2F1 (CDF1) mice. The settings on record: endpoint: mean survival time, higher = longer survival. In outline:
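Vehicle-treated tumor-bearing mice served as controls (C) for compound-treated mice (T). Reported figure is T divided by C.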

The mark [1] stands for this setting: dose: 12.5 mg/kg/injection, schedule: Q04DX002 (ip), vehicle: saline with Tween-80.
Setting [2] is: dose: 25.0 mg/kg/injection, schedule: Q04DX002 (ip), vehicle: saline with Tween-80.
Setting [3] is: dose: 100.0 mg/kg/injection, schedule: Q01DX009 (ip), vehicle: saline with Tween-80.
[4] abbreviates: dose: 200.0 mg/kg/injection, schedule: Q01DX009 (ip), vehicle: saline with Tween-80.
Where [5] appears, read: dose: 400.0 mg/kg/injection, schedule: Q01DX009 (ip), vehicle: saline with Tween-80.
Where [6] appears, read: dose: 50.0 mg/kg/injection, schedule: Q04DX003 (ip), vehicle: saline.
Where [7] appears, read: dose: 100.0 mg/kg/injection, schedule: Q04DX003 (ip), vehicle: saline.
Where [8] appears, read: dose: 200.0 mg/kg/injection, schedule: Q04DX003 (ip), vehicle: saline.
Where [9] appears, read: dose: 400.0 mg/kg/injection, schedule: Q04DX003 (ip), vehicle: saline.

On to `CC(=O)N=C1C=C(NC(C)=O)C(=O)c2ncccc21`, for which the T/C is, setting by setting: (dose: 6.25 mg/kg/injection, schedule: Q04DX002 (ip), vehicle: saline with Tween-80) 95 % of control; under setting [1], 119 % of control; under setting [2], 119 % of control.

In the case of `Cc1ccc(C23CC4CC(CC(C4)C2)C3)cc1`, the T/C under setting [1] was 101 % of control; the T/C under setting [2] is 93 % of control; the T/C (dose: 50.0 mg/kg/injection, schedule: Q04DX002 (ip), vehicle: saline with Tween-80) is 96 % of control.

As for `O=C1C(=O)c2ccccc2C(O)=C1C(C1=C(O)c2ccccc2C(=O)C1=O)c1ccccc1Br`, the T/C (dose: 100.0 mg/kg/injection, schedule: Q01DX001 (ip), vehicle: saline sonified) was 98 % of control; the T/C under setting [3] was 86 % of control; the T/C (dose: 200.0 mg/kg/injection, schedule: Q01DX001 (ip), vehicle: saline sonified) was 102 % of control; the T/C (dose: 400.0 mg/kg/injection, schedule: Q01DX001 (ip), vehicle: saline sonified) is 91 % of control.

With `CCn1c(N)c(N)c(=O)[nH]c1=S`, the T/C by setting is: under setting [3], 94 % of control; under setting [4], 98 % of control; under setting [5], 88 % of control.

For the compound `C=CCNC(=O)NCC=C`, the T/C is, setting by setting: (dose: 3.13 mg/kg/injection, schedule: Q01DX009 (ip), vehicle: saline) 102 % of control and 110 % of control (2×); (dose: 12.5 mg/kg/injection, schedule: Q01DX005 (ip), vehicle: saline) 102 % of control; (dose: 12.5 mg/kg/injection, schedule: Q02DX005 (ip), vehicle: saline) 97 % of control; (dose: 12.5 mg/kg/injection, schedule: Q04DX003 (ip), vehicle: saline) 100 % of control; (dose: 25.0 mg/kg/injection, schedule: Q01DX005 (ip), vehicle: saline) 105 % of control; (dose: 25.0 mg/kg/injection, schedule: Q02DX005 (ip), vehicle: saline) 100 % of control. Moreover, the T/C by setting is: (dose: 25.0 mg/kg/injection, schedule: Q04DX003 (ip), vehicle: saline) 102 % of control; (dose: 50.0 mg/kg/injection, schedule: Q01DX005 (ip), vehicle: saline) 103 % of control; (dose: 50.0 mg/kg/injection, schedule: Q02DX005 (ip), vehicle: saline) 103 % of control; under setting [6], 103 % of control; (dose: 100.0 mg/kg/injection, schedule: Q01DX005 (ip), vehicle: saline) 109 % of control; (dose: 100.0 mg/kg/injection, schedule: Q01DX006 (ip), vehicle: saline) 154 % of control. For the same compound, the T/C by setting is: (dose: 100.0 mg/kg/injection, schedule: Q02DX005 (ip), vehicle: saline) 105 % of control; (dose: 100.0 mg/kg/injection, schedule: Q03DX003 (ip), vehicle: saline) 120 % of control; under setting [7], 115 % of control and 109 % of control; (dose: 200.0 mg/kg/injection, schedule: Q01DX006 (ip), vehicle: saline) 168 % of control; (dose: 200.0 mg/kg/injection, schedule: Q02DX005 (ip), vehicle: saline) 109 % of control; under setting [8], 115 % of control and 120 % of control. In addition, the T/C is 115 % of control (dose: 400.0 mg/kg/injection, schedule: Q02DX005 (ip), vehicle: saline) and 97 % of control under setting [9].

As for `O=C(NC(CCO)C(=O)O)OCc1ccccc1` (stereo unspecified), the T/C was 95 % of control (dose: 75.0 mg/kg/injection, schedule: Q04DX003 (ip), vehicle: saline); 98 % of control (dose: 150.0 mg/kg/injection, schedule: Q04DX003 (ip), vehicle: saline); 101 % of control (dose: 300.0 mg/kg/injection, schedule: Q04DX003 (ip), vehicle: saline).

In the case of `NNC(=O)CNc1cccc(Br)c1`, the T/C reads like this: (dose: 12.5 mg/kg/injection, schedule: Q01DX009 (ip), vehicle: Klucel (hydroxypropylcellulose) (HPC)) 98 % of control; (dose: 25.0 mg/kg/injection, schedule: Q01DX009 (ip), vehicle: Klucel (hydroxypropylcellulose) (HPC)) 101 % of control; (dose: 50.0 mg/kg/injection, schedule: Q01DX009 (ip), vehicle: Klucel (hydroxypropylcellulose) (HPC)) 101 % of control; (dose: 50.0 mg/kg/injection, schedule: Q04DX003 (ip), vehicle: Klucel (hydroxypropylcellulose) (HPC)) 101 % of control; (dose: 100.0 mg/kg/injection, schedule: Q01DX001 (ip), vehicle: Klucel (hydroxypropylcellulose) (HPC)) 102 % of control; (dose: 100.0 mg/kg/injection, schedule: Q01DX009 (ip), vehicle: Klucel (hydroxypropylcellulose) (HPC)) 97 % of control. The T/C by setting is: (dose: 100.0 mg/kg/injection, schedule: Q04DX003 (ip), vehicle: Klucel (hydroxypropylcellulose) (HPC)) 98 % of control; (dose: 200.0 mg/kg/injection, schedule: Q01DX001 (ip), vehicle: Klucel (hydroxypropylcellulose) (HPC)) 98 % of control; (dose: 200.0 mg/kg/injection, schedule: Q04DX003 (ip), vehicle: Klucel (hydroxypropylcellulose) (HPC)) 111 % of control.

As for `COC(=O)c1cccc(OCC(=O)Nc2ccccc2)c1`, the T/C by setting is: (dose: 100.0 mg/kg/injection, schedule: Q01DX001 (ip), vehicle: saline with Tween-80) 101 % of control; (dose: 200.0 mg/kg/injection, schedule: Q01DX001 (ip), vehicle: saline with Tween-80) 93 % of control; (dose: 400.0 mg/kg/injection, schedule: Q01DX001 (ip), vehicle: saline with Tween-80) 92 % of control.

As to `N#CCCCC1(CCCC#N)OCCO1`, the T/C reads like this: under setting [6], 100 % of control; under setting [7], 102 % of control; under setting [8], 107 % of control.

Take `C/C(=N\O)c1ccc2ccc3ccccc3c2c1`: the T/C by setting is: (dose: 100.0 mg/kg/injection, schedule: Q01DX001 (ip), vehicle: saline) 100 % of control; under setting [7], 102 % of control; (dose: 200.0 mg/kg/injection, schedule: Q01DX001 (ip), vehicle: saline) 95 % of control; under setting [8], 100 % of control; (dose: 400.0 mg/kg/injection, schedule: Q01DX001 (ip), vehicle: saline) 100 % of control; under setting [9], 97 % of control.

With `COc1cc2c(cc1OC)-c1cc(C)c3cc(OC)c(OC)cc3[n+]1CC2`, the T/C was 109 % of control (dose: 25.0 mg/kg/injection, schedule: Q01DX009 (ip), vehicle: other); 115 % of control (dose: 50.0 mg/kg/injection, schedule: Q01DX009 (ip), vehicle: other); 109 % of control (dose: 100.0 mg/kg/injection, schedule: Q01DX009 (ip), vehicle: other).

Turning to `O=C(CC(=O)c1ccccc1)c1ccccc1.O=C(CC(=O)c1ccccc1)c1ccccc1.[Pd]`, the T/C (dose: 3.13 mg/kg/injection, schedule: Q04DX003 (ip), vehicle: distilled water + Tween-80) is 96 % of control; the T/C (dose: 6.25 mg/kg/injection, schedule: Q04DX003 (ip), vehicle: distilled water + Tween-80) is 98 % of control; the T/C (dose: 12.5 mg/kg/injection, schedule: Q04DX003 (ip), vehicle: distilled water + Tween-80) is 94 % of control; the T/C (dose: 25.0 mg/kg/injection, schedule: Q04DX003 (ip), vehicle: distilled water + Tween-80) is 98 % of control; the T/C (dose: 50.0 mg/kg/injection, schedule: Q04DX003 (ip), vehicle: distilled water + Tween-80) is 93 % of control; the T/C (dose: 100.0 mg/kg/injection, schedule: Q04DX003 (ip), vehicle: distilled water + Tween-80) was 89 % of control. Also, the T/C (dose: 200.0 mg/kg/injection, schedule: Q04DX003 (ip), vehicle: distilled water + Tween-80) was 107 % of control.

As for `CC(=O)OCC(=O)C1(O)CCC2C3CCC4=CC(=O)CCC4(C)C34OC4CC21C` (stereo unspecified), the T/C was 98 % of control under setting [3], 94 % of control under setting [4] and 91 % of control under setting [5].

Take `Nc1ncnc2[nH]c(=O)[nH]c12`: the T/C was 101 % of control (dose: 12.5 mg/kg/injection, schedule: Q01DX009 (ip), vehicle: saline); 114 % of control (dose: 25.0 mg/kg/injection, schedule: Q01DX009 (ip), vehicle: saline); 105 % of control (dose: 50.0 mg/kg/injection, schedule: Q01DX009 (ip), vehicle: saline); 108 % of control under setting [7]; 112 % of control under setting [8]; 108 % of control under setting [9].

For `C=CCNC(=S)N/N=C\c1cc(OC)c(OC)c(OC)c1`, the T/C runs as follows: under setting [3], 93 % of control; under setting [4], 97 % of control; under setting [5], 106 % of control.

Regarding `CNC/C(C)=C/Cl`, the T/C runs as follows: (dose: 50.0 mg/kg/injection, schedule: Q01DX009 (ip), vehicle: acetone) 96 % of control; (dose: 100.0 mg/kg/injection, schedule: Q01DX009 (ip), vehicle: acetone) 90 % of control.
